Assay results as given in patent US20160083391A1, “TRICYCLIC PIPERAZINE DERIVATIVE” (Sunovion Pharmaceuticals Inc., priority 2014, published 2016).

Tested on: PDE1
Assay: In vitro HTRF PDE1 inhibition assay
Format: biochemical
Conditions: HTRF cGMP assay, 100 nM cyclic GMP, PDE (1A3, 1B or 1C) with calmodulin, 45 minutes at 37° C.; isoform of the tabulated values not stated
From the text: An exemplary procedure for the in vitro Homogenous Time Resolved Fluorescence assay, which can be used to determine the inhibitory action of compounds of the invention toward. PDE1 or its isoforms, follows.
The HTRF PDE1 assay utilized the HTRF (Homogenous Time Resolved Fluorescence) technology, which is based on the competition between unlabeled cyclic nucleotide and cyclic nucleotide labeled with XL665 for the binding to cyclic nucleotide-specific antibody labeled with cryptate. The HTRF signal is thus inversely proportional to the concentration of cyclic nucleotide being measured. Since phosphodiesterases break down cyclic nucleotides the HTRF signal was used to determine PDE activity.
The Cisbio cGMP HTRF assay kit (Cat no: 62GM2PEC) was utilized. Cyclic GMP was diluted to 200 nM in HTRF assay buffer (1 mM CaCl2, 10 mM MgCl2, 10 mM Tris-HCl, 0.1% BSA, pH7.4). 10 μl of compound or DMSO was diluted in 200 nM cyclic GMP solution and added to wells of a 96 well white plate to give 100 nM cyclic GMP in 1% DMSO final concentration. PDE (1A3, 1B or 1C) was diluted to 2× working concentration in HTRF assay buffer with […] Calmodulin, and 10 μl was added to initiate the reaction. The plate was then incubated for 45 minutes at 37° C. d2-Labelled cyclic GMP and anti-cGMP cryptate were diluted in 50 mM phosphate buffer, 0.8M KF, 1% Triton X100, 0.2% BSA, pH7.0. Following incubation 10 μl d2-cGMP, then 10 μl anti cGMP cryptate were added to each well and the plate was incubated for 45 minutes at room temperature. The plate was then read on Perkin Elmer Victor at 2 different FRET readings ex/emm 340 nm/665 nm and 340 nm/615 nm.
Compounds having an IC50 of <1 μM, are denoted as +++. Compounds having an IC50 of 1-10 μM, are denoted as ++. Compounds having an IC50 of >10 μM, are denoted as +.

Row | SMILES | IC50
1 | CC1NCCn2c1nc1c(cnn1C)c2=O (racemic) [Compound I-3, (±)-1,9-Dimethyl-6,7,8,9-tetrahydropyrazino[1,2-a]pyrazolo[3,4-d]pyrimidin-4(1H)-one] | > 10 µM
2 | CC1NCCn2c1nc1c(cnn1C(C)C)c2=O (racemic) [Compound I-4, (±)-1-Isopropyl-9-methyl-6,7,8,9-tetrahydropyrazino[1,2-a]pyrazolo[3,4-d]pyrimidin-4(1H)-one] | > 10 µM
3 | CC1NCCn2c1nc1c(cnn1-c1ccccc1)c2=O (racemic) [Compound I-5, (±)-9-Methyl-1-phenyl-6,7,8,9-tetrahydropyrazino[1,2-a]pyrazolo[3,4-d]pyrimidin-4(1H)-one] | > 10 µM
4 | O=c1c2cn[nH]c2nc2n1CCNC2Cc1ccccc1 (racemic) [Compound I-6, (±)-9-Benzyl-6,7,8,9-tetrahydropyrazino[1,2-a]pyrazolo[3,4-d]pyrimidin-4(1H)-one] | > 10 µM
5 | Cn1ncc2c(=O)n3c(nc21)C(Cc1ccccc1)NCC3 (racemic) [Compound I-7, (±)-9-Benzyl-1-methyl-6,7,8,9-tetrahydropyrazino[1,2-a]pyrazolo[3,4-d]pyrimidin-4(1H)-one] | > 10 µM
6 | CC(C)n1ncc2c(=O)n3c(nc21)C(Cc1ccccc1)NCC3 (racemic) [Compound I-8, (±)-9-Benzyl-1-isopropyl-6,7,8,9-tetrahydropyrazino[1,2-a]pyrazolo[3,4-d]pyrimidin-4(1H)-one] | 1 to 10 µM
7 | O=c1c2cnn(-c3ccccc3)c2nc2n1CCNC2Cc1ccccc1 (racemic) [Compound I-9, (±)-9-Benzyl-1-phenyl-6,7,8,9-tetrahydropyrazino[1,2-a]pyrazolo[3,4-d]pyrimidin-4(1H)-one] | > 10 µM
8 | CC(C)c1n[nH]c2c(=O)n3c(nc12)C(C)NCC3 (racemic) [Compound I-11, (±)-3-Isopropyl-5-methyl-5,6,7,8-tetrahydropyrazino[1,2-a]pyrazolo[4,3-d]pyrimidin-10(1H)-one] | > 10 µM
9 | CC(C)c1n[nH]c2c(=O)n3c(nc12)C(Cc1ccccc1)NCC3 (racemic) [Compound I-12, (±)-5-Benzyl-3-isopropyl-5,6,7,8-tetrahydropyrazino[1,2-a]pyrazolo[4,3-d]pyrimidin-10(1H)-one] | > 10 µM
10 | CC(C)c1nn(C)c2c(=O)n3c(nc12)C(C)NCC3 (racemic) [Compound I-14, (±)-3-Isopropyl-1,5-dimethyl-5,6,7,8-tetrahydropyrazino[1,2-a]pyrazolo[4,3-d]pyrimidin-10(1H)-one] | > 10 µM
11 | CC(C)c1nn(C)c2c(=O)n3c(nc12)C(Cc1ccccc1)NCC3 (racemic) [Compound I-15, (±)-5-Benzyl-3-isopropyl-1-methyl-5,6,7,8-tetrahydropyrazino[1,2-a]pyrazolo[4,3-d]pyrimidin-10(1H)-one] | > 10 µM
12 | CC1c2nc3c(cnn3C)c(=O)n2CCN1C (racemic) [Compound I-20, (±)-1,8,9-Trimethyl-6,7,8,9-tetrahydropyrazino[1,2-a]pyrazolo[3,4-d]pyrimidin-4(1H)-one] | > 10 µM
13 | CC1c2nc3c(cnn3C(C)C)c(=O)n2CCN1C (racemic) [Compound I-21, (±)-1-Isopropyl-8,9-dimethyl-6,7,8,9-tetrahydropyrazino[1,2-a]pyrazolo[3,4-d]pyrimidin-4(1H)-one] | > 10 µM
14 | CC1c2nc3c(cnn3-c3ccccc3)c(=O)n2CCN1C (racemic) [Compound I-22, (±)-8,9-Dimethyl-1-phenyl-6,7,8,9-tetrahydropyrazino[1,2-a]pyrazolo[3,4-d]pyrimidin-4(1H)-one] | > 10 µM
15 | CN1CCn2c(nc3[nH]ncc3c2=O)C1Cc1ccccc1 (racemic) [Compound I-23, (±)-9-Benzyl-8-methyl-6,7,8,9-tetrahydropyrazino[1,2-a]pyrazolo[3,4-d]pyrimidin-4(1H)-one] | > 10 µM
16 | CN1CCn2c(nc3c(cnn3C)c2=O)C1Cc1ccccc1 (racemic) [Compound I-24, (±)-9-Benzyl-1,8-dimethyl-6,7,8,9-tetrahydropyrazino[1,2-a]pyrazolo[3,4-d]pyrimidin-4(1H)-one] | > 10 µM

Row | SMILES | IC50
17 | CC(C)n1ncc2c(=O)n3c(nc21)C(Cc1ccccc1)N(C)CC3 (racemic) [Compound I-25, (±)-9-Benzyl-1-isopropyl-8-methyl-6,7,8,9-tetrahydropyrazino[1,2-a]pyrazolo[3,4-d]pyrimidin-4(1H)-one] | > 10 µM
18 | CN1CCn2c(nc3c(cnn3-c3ccccc3)c2=O)C1Cc1ccccc1 (racemic) [Compound I-26, (±)-9-Benzyl-8-methyl-1-phenyl-6,7,8,9-tetrahydropyrazino[1,2-a]pyrazolo[3,4-d]pyrimidin-4(1H)-one] | > 10 µM
19 | CC1c2nc3c(cnn3C)c(=O)n2CCN1Cc1ccccc1 (racemic) [Compound I-31, (±)-8-Benzyl-1,9-dimethyl-6,7,8,9-tetrahydropyrazino[1,2-a]pyrazolo[3,4-d]pyrimidin-4(1H)-one] | > 10 µM
20 | CC1c2nc3c(cnn3C(C)C)c(=O)n2CCN1Cc1ccccc1 (racemic) [Compound I-32, (±)-8-Benzyl-1-isopropyl-9-methyl-6,7,8,9-tetrahydropyrazino[1,2-a]pyrazolo[3,4-d]pyrimidin-4(1H)-one] | > 10 µM
21 | CC1c2nc3c(cnn3-c3ccccc3)c(=O)n2CCN1Cc1ccccc1 (racemic) [Compound I-33, (±)-8-Benzyl-9-methyl-1-phenyl-6,7,8,9-tetrahydropyrazino[1,2-a]pyrazolo[3,4-d]pyrimidin-4(1H)-one] | > 10 µM
22 | O=c1c2cn[nH]c2nc2n1CCN(Cc1ccccc1)C2Cc1ccccc1 (racemic) [Compound I-34, (±)-8,9-Dibenzyl-6,7,8,9-tetrahydropyrazino[1,2-a]pyrazolo[3,4-d]pyrimidin-4(1H)-one] | > 10 µM
23 | Cn1ncc2c(=O)n3c(nc21)C(Cc1ccccc1)N(Cc1ccccc1)CC3 (racemic) [Compound I-35, (±)-8,9-Dibenzyl-1-methyl-6,7,8,9-tetrahydropyrazino[1,2-a]pyrazolo[3,4-d]pyrimidin-4(1H)-one] | > 10 µM
24 | CC(C)n1ncc2c(=O)n3c(nc21)C(Cc1ccccc1)N(Cc1ccccc1)CC3 (racemic) [Compound I-36, (±)-8,9-Dibenzyl-1-Isopropyl-6,7,8,9-tetrahydropyrazino[1,2-a]pyrazolo[3,4-d]pyrimidin-4(1H)-one] | > 10 µM
25 | O=c1c2cnn(-c3ccccc3)c2nc2n1CCN(Cc1ccccc1)C2Cc1ccccc1 (racemic) [Compound I-37, (±)-8,9-Dibenzyl-1-phenyl-6,7,8,9-tetrahydropyrazino[1,2-a]pyrazolo[3,4-d]pyrimidin-4(1H)-one] | > 10 µM
26 | CC(C)c1n[nH]c2c(=O)n3c(nc12)C(C)N(C)CC3 (racemic) [Compound I-38, (±)-3-Isopropyl-5,6-dimethyl-5,6,7,8-tetrahydropyrazino[1,2-a]pyrazolo[4,3-d]pyrimidin-10(1H)-one] | > 10 µM
27 | CC(C)c1n[nH]c2c(=O)n3c(nc12)C(Cc1ccccc1)N(C)CC3 (racemic) [Compound I-39, (±)-5-Benzyl-3-isopropyl-6-methyl-5,6,7,8-tetrahydropyrazino[1,2-a]pyrazolo[4,3-d]pyrimidin-10(1H)-one] | > 10 µM
28 | CC(C)c1nn(C)c2c(=O)n3c(nc12)C(C)N(C)CC3 (racemic) [Compound I-41, (±)-3-Isopropyl-1,5,6-trimethyl-5,6,7,8-tetrahydropyrazino[1,2-a]pyrazolo[4,3-d]pyrimidin-10(1H)-one] | > 10 µM
29 | CC(C)c1nn(C)c2c(=O)n3c(nc12)C(Cc1ccccc1)N(C)CC3 (racemic) [Compound I-42, (±)-5-Benzyl-3-isopropyl-1,6-dimethyl-5,6,7,8-tetrahydropyrazino[1,2-a]pyrazolo[4,3-d]pyrimidin-10(1H)-one] | > 10 µM
30 | CC(C)c1n[nH]c2c(=O)n3c(nc12)C(C)N(Cc1ccccc1)CC3 (racemic) [Compound I-44, (±)-6-Benzyl-3-isopropyl-5-methyl-5,6,7,8-tetrahydropyrazino[1,2-a]pyrazolo[4,3-d]pyrimidin-10(1H)-one] | > 10 µM
31 | CC(C)c1n[nH]c2c(=O)n3c(nc12)C(Cc1ccccc1)N(Cc1ccccc1)CC3 (racemic) [Compound I-45, (±)-5,6-dibenzyl-3-isopropyl-5,6,7,8-tetrahydropyrazino[1,2-a]pyrazolo[4,3-d]pyrimidin-10(1H)-one] | > 10 µM
32 | CC(C)c1nn(C)c2c(=O)n3c(nc12)C(C)N(Cc1ccccc1)CC3 (racemic) [Compound I-47, (±)-6-Benzyl-3-isopropyl-1,5-dimethyl-5,6,7,8-tetrahydropyrazino[1,2-a]pyrazolo[4,3-d]pyrimidin-10(1H)-one] | > 10 µM
